In patent EP0142075A2, “Purine derivatives, their preparation, and medicaments containing these compounds” (Dr. Karl Thomae GmbH, priority 1983, dated 1985):
Like-named read-outs stand apart in the source and are kept apart here.

How the values were obtained:
[1] = Acute toxicity (orientating), single oral dose in mice; details: mouse, in vivo, read-out: Orientierend akute Toxizität
Method: (§1) Die akute Toxizität der zu untersuchenden Substanzen wurde orientierend an Gruppen von je 10 Mäusen nach oraler Gabe einer Einzeldosis von 300 mg/kg bestimmt (Beobachtungszeit: 14 Tage): […]

Mäusen = assay: as above; details: in vivo, po, 300 mg/kg
Method: as §1

[2] = mice, groups of 10, single oral dose of 300 mg/kg, observation time 14 days

Compound	LD50 at 336 h [1, 2] [mg/kg]	Tieren gestorben (Mäusen)	LD50 at 336 h ([1]; po, 300 mg/kg) [mg/kg]
C#CCOc1ccc(-c2nc3ncncc3[nH]2)c(OC)c1 [Substanz A, 8-(2-Methoxy-4-propargyloxyphenyl)-purin]	> 300	0 von 10	–
COc1cc(OCC#N)ccc1-c1nc2cncnc2[nH]1 [Substanz C, 8-(2-Methoxy-4-cyanmethoxyphenyl)-purin]	–	> 300 mg/kg (O von 10 Tieren gestorben)	> 300
COC(=O)COc1ccc(-c2nc3ncncc3[nH]2)c(OC)c1 [Substanz B, 8-(2-Methoxy-4-methoxycarbonylmethoxyphenyl)-purin]	> 300	0 von 10	–
